Measurements reported in patent US12370170B2, “Composition comprising naphthoquinone-based compound as active ingredient, for preventing or ameliorating fatigue, cachexia, pain, cognitive decline and hematopoietic stem cell reduction which are side effects related to anticancer drug treatment” (NADIANBIO LTD., priority 2016, dated 2025).

Key:
Assay type in all cases: in vivo, C57BL/6 mice
TNF-α = TNF-α expression in femur by immunohistostaining, 4×ACP animal model; conditions: dunnione 80 mg/kg oral
Description: (§1) In this invention, 11 weeks old C57BL/6 mice were used. All the mice used in the experiments of the invention were raised in an aseptic animal room at the temperature of 22˜26 L with the humidity of 55˜60%. The mice were allowed to take general solid feed (SAMTACO Co., Ltd., Korea) and water freely. The mice were adapted for 1 week before the experiment. All the experiments were performed after obtaining approval from the clinical trial management committee in accordance with the laboratory animal care and ethics regulations of Wonkwang University. The mouse animal model of the present invention was treated with different anticancer drugs. Particularly, one kind of anticancer drug was administered intraperitoneally one time or more, or several kinds of anticancer drugs were administered once or more times or at different concentrations, leading to the establishment of the animal model of the invention. In the adriamycin-induced animal model, the mice were divided into 6 groups as follows: the control group administered with PBS (Control, 5 mice), the group administered intraperitoneally with adriamycin (4 mg/kg/day) 3 times (ADR, 5 mice), the group administered orally with dunnione or β-lapachone from 3 days before the adriamycin treatment daily (20 mg/kg, 5 mice), and the group administered with dunnione or β-lapachone (20 mg/kg, 5 mice). […]

[1] = tested on: inflammatory cytokines TNF-α and IL-1β; experiment: Brain inflammatory response: TNF-α and IL-1β in hypothalamus (RT-PCR, ELISA), 4×ACP animal model; conditions: dunnione 80 mg/kg oral
Description: In this invention, 11 weeks old C57BL/6 mice were used. All the mice used in the experiments of the invention were raised in an aseptic animal room at the temperature of 22˜26 L with the humidity of 55˜60%. The mice were allowed to take general solid feed (SAMTACO Co., Ltd., Korea) and water freely. The mice were adapted for 1 week before the experiment. All the experiments were performed after obtaining approval from the clinical trial management committee in accordance with the laboratory animal care and ethics regulations of Wonkwang University. The mouse animal model of the present invention was treated with different anticancer drugs. Particularly, one kind of anticancer drug was administered intraperitoneally one time or more, or several kinds of anticancer drugs were administered once or more times or at different concentrations, leading to the establishment of the animal model of the invention. In the adriamycin-induced animal model, the mice were divided into 6 groups as follows: the control group administered with PBS (Control, 5 mice), the group administered intraperitoneally with adriamycin (4 mg/kg/day) 3 times (ADR, 5 mice), the group administered orally with dunnione or β-lapachone from 3 days before the adriamycin treatment daily (20 mg/kg, 5 mice), and the group administered with dunnione or β-lapachone (20 mg/kg, 5 mice). 4 days after the final adriamycin treatment, analysis of the mice was performed.
The present inventors established an animal model co-treated with three different anticancer drugs in this experiment. The anticancer drugs used herein were adriamycin (ADR), cyclophosphamide (CYP) and paclitaxel (PTX), which were indicated as ACP. […]
A homogenate was prepared with the mouse hypothalamus extracted from the 4×ACP animal model prepared by the same manner as described in Example 8. Then, the expressions of the inflammatory cytokines TNF-α and IL-1β in the brain tissue were analyzed by ELISA.

[2] = tested on: F4/80 positive cells (macrophages); experiment: Inflow of macrophages into femur, F4/80 immunohistostaining, 4×ACP animal model; conditions: dunnione 80 mg/kg oral
Description: as §1

[3] = tested on: inflammatory cytokines TNF-α, IL-1β, IL-6 and IL-17; experiment: Plasma inflammatory cytokines by ELISA in gemcitabine (500 mg/kg) animal model; conditions: gemcitabine 500 mg/kg i.p. once; dunnione 20 mg/kg oral daily from 3 days before; 2 days after gemcitabine; vs gemcitabine group
Description: as §1, with “invention.” for “invention. In the adriamycin-induced animal model, the mice were divided into 6 groups as follows: the control group administered with PBS (Control, 5 mice), the group administered intraperitoneally with adriamycin (4 mg/kg/day) 3 times (ADR, 5 mice), the group administered orally with dunnione or β-lapachone from 3 days before the adriamycin treatment daily (20 mg/kg, 5 mice), and the group administered with dunnione or β-lapachone (20 mg/kg, 5 mice).”
Plasma was isolated from the gemcitabine animal model prepared by the same manner as described in Example 5, and the inflammatory cytokines TNF-α, IL-1β, IL-6 and IL-17 were analyzed by ELISA.

Q: `CC1OC2=C(C(=O)C(=O)c3ccccc32)C1(C)C` (centres unmarked) [dunnione, 2,3-dihydro-2,3,3-trimethyl naphtho [1,2-b]furan-4,5-dione] was tested. Which “up-regulation of TNF-α in the bone (femur)” value (TNF-α) did it give?
A: significantly suppressed

Q: And the “up-regulations of TNF-α and IL-1β at protein level in the hypothalamus” value ([1]; ELISA)?
A: significantly suppressed

Q: And the “up-regulations of TNF-α and IL-1β at RNA level in the hypothalamus” value ([1]; RT-PCR)?
A: significantly suppressed

Q: And the “increased F4/80 positive cells in the bone (femur)” value [2]?
A: significantly reduced

Q: What about the “level of inflammatory cytokines (TNF-α, IL-1β, IL-6, IL-17) in plasma” value [3] of the same compound?
A: significantly reduced
